This note sets out measurements from ChEMBL document CHEMBL5233268, “Application of marine natural products in drug research” (Bioorg Med Chem, 2021).

Values after ≈ are worked out from the molar mass of the structure shown.

The test system of test [1] is KB. Description: Cytotoxicity against human KB cells assessed as inhibition of cell growth. Type of test: functional, cell-based.
Test [2] deals with 5'-nucleotidase (Homo sapiens, UniProt P21589). Nature of the test: Inhibition of human N-terminal Ecto-5'-nucleotidase.
5'-nucleotidase, sequence (P21589 whole entry): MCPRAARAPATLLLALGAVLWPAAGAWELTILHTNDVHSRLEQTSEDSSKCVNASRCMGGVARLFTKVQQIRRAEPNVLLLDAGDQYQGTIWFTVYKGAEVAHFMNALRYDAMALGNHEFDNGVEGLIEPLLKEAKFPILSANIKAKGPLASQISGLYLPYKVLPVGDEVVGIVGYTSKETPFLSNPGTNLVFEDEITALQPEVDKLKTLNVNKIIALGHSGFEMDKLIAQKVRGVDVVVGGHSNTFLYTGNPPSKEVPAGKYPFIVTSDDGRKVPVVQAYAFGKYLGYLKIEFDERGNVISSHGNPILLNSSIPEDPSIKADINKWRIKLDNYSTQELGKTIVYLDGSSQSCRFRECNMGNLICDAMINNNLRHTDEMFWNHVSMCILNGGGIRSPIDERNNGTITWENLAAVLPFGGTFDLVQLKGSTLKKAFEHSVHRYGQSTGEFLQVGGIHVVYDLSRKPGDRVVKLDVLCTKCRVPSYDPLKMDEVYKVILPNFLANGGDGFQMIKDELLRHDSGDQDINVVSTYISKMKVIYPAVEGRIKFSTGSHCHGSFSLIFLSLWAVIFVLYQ

In the case of `COc1ccc(C[C@H]2NC(=O)/C=C/C[C@@H]([C@H](C)[C@H]3O[C@@H]3c3ccccc3)OC(=O)[C@H](CC(C)C)OC(=O)CCNC2=O)cc1` [ARENASTATIN A], the IC50 in test [1] turned out to be 0.005 ng/mL (≈ 0.00824 nM). As for `Nc1ncc(/C=C/CNC(=O)c2ccc[nH]2)[nH]1` [CLATHRODIN], inhibition in test [2] was half-maximal at 1.6 µM (IC50).

As for `Nc1ncc(/C=C/CNC(=O)c2cc(Br)c(Br)[nH]2)[nH]1` [OROIDIN], the IC50 in test [2] worked out at 1.6 µM.
